The text below walks through data of US7727516B2, “Reduction of hair growth” (The Procter & Gamble Company, priority 2006, dated 2010).

Experiment [1] concerns Ki-67 immunoreactivity in the hair matrix and outer root sheath. The experiment in a line: Ki-67 immunofluorescence for proliferating cells in cultured hair follicles. The following applies: hair follicle treatment, concentration-dependent. Type of experiment: cell-based, human. As to the method: For detection of proliferating cells the indirect immunofluorescence protocol using rabbit monoclonal antibody against Ki-67. Eight […]m hair follicle sections were fixed in formalin and postfixed in ethanol/acetic acid. […] Counterstaining was performed using HOECHST 33342 dye ([…] in PBS; 10 minutes). Each phase was interspersed by a washing step (three times) in PBS. Finally, sections were mounted using VectaShield Vector Laboratories). All sections were examined under a Olympus BX 60 fluorescent microscope and photodocumented with the help of a digital image analysis system (CoolSnap™ cooled CCD camera, Alpha Innotech) To identify whether modulation of TRPM8 and TRPA1 activity could affect hair growth, their agonists were tested in the hair follicle culture model. Hair follicle treatment with 10 uM of menthol, icilin, and menthyl lactate, caused statistically significant hair growth inhibition by 40%, 45% and 60% respectively, compared to the control. […] Thus, activation of either TRPM8 or TRPA1 by a cooling agent leads to a significant reduction of hair growth rate in vitro.

Experiment [2] deals with human epidermal melanocytes. Briefly: Western blot of melanogenic proteins in human epidermal melanocytes culture. The experiment is classed as cell-based. As to conditions: 10 uM, 48 hours. The method, then:
Total cellular proteins of human melanocytes were harvested in a lysis buffer (Total protein extraction kit; CHEMICON International, Inc). Twenty […]g protein were loaded per lane, separated by 10% sodium dodecyl sulfate polyacrylamide gel electrophoresis, and transferred to nitrocellulose membrane at 100 V for 1 h. Following overnight blocking with 5% nonfat dry milk/bovine serum albumin (BSA) in Tris-phosphate-buffered saline (PBS) (0.5% Tween-20 in PBS) at 4° C., the membrane was incubated overnight with a monoclonal antibody against either tyrosinase or tyrosinase-related protein-1 or actin at a dilution of 1:1000. […] After extensive washing the membrane was incubated for 1 min with the enzyme-linked chemiluminescence Western Blotting Detection Reagent (Amersham, Buckinghamshire, U.K.), and bands were detected on preflashed Kodak X-Omat film and developed after several seconds of exposure.
To determine whether a TRPM8 and TRPA1 agonist can affect pigment producing activity of the melanocytes, expression of tyrosinase was analyzed in the hair follicles treated with 10 uM icilin by immunohistochemistry. […] A decrease in tyrosinase and tyrosinase-related protein (TRP)-1 expression levels were observed 48 hours after 10 uM icilin treatment, compared to the control, as determined by Western blot analysis. […]

The subject of experiment [3] is human hair follicles in growth phase (anagen). The experiment in a line: Human hair follicle growth assay (hair follicle culture model). The experiment is classed as cell-based. The following applies: follicle length day 6 minus day 0, statistically significant, read-out: hair growth inhibition compared to the control. As to the method:
Human hair follicles in growth phase (anagen) were isolated from face-lift tissue (obtained from plastic surgeons). The skin was sliced into thin strips exposing 2-3 rows of follicles that could readily be dissected. Follicles were placed into William's E medium (Life Technologies, Gaithersburg, Md.) supplemented with 2 mM L-glutamine, 10 µg/ml insulin, 10 ng/ml hydrocortisone, and an antibiotic/antimicotic mixture as described in Philpott et al. (1990) J. Cell Sci. 97 (Pt3):463-71. The follicles were incubated in 24-well plates (1 follicle/well) at 37° C. in an atmosphere of 5% CO2 and 100% humidity for different periods of time (Philpott et al. (1990) supra). The length of hair follicle was assessed using an image analysis software system. To determine the effect of molecules modulating TRPM8/TRPA1 activity on hair growth, hair follicles were incubated with icilin (Tocris Bioscience) and L-Menthol, L-menthyl lactate (Sigma). Hair follicle images were taken in the 24-well plates under the dissecting scope under a power of 20×. Hair follicle length was measured on day 0 (day follicles were placed in culture) and again on day 6. The growth of hair fiber was calculated by the subtracting the follicle length on day 0 from that determined on day 6. To identify whether modulation of TRPM8 and TRPA1 activity could affect hair growth, their agonists were tested in the hair follicle culture model. Hair follicle treatment with 10 uM of menthol, icilin, and menthyl lactate, caused statistically significant hair growth inhibition by 40%, 45% and 60% respectively, compared to the control. […] Thus, activation of either TRPM8 or TRPA1 by a cooling agent leads to a significant reduction of hair growth rate in vitro.

Experiment [4] concerns tyrosinase expression in hair follicles. Briefly: Tyrosinase immunohistochemistry in treated hair follicles. The experiment is classed as cell-based, human. The following applies: 10 uM. As to the method:
For the immunodetection of melanogenic proteins, sections were incubated with either mouse monoclonal antibody against human tyrosinase or chicken monoclonal antibody against human p-mel 17 (Neomarker and Zymed, respectively; 1:100, overnight), followed by incubation with TRITC-labeled […] (Jackson ImmunoResearch; 45 min, 37° C.) and FITC-labeled goat anti-chicken IgG, respectively. Next, sections were counterstained with Hoechst 33342 (1:300, 15 min) for identification of cell nuclei, and mounted using VectaShield (Vector Laboratories). All sections were examined under a Olympus BX 60 fluorescent microscope and photodocumented with the help of a digital image analysis system (CoolSnap™ cooled CCD camera, Alpha Innotech) To determine whether a TRPM8 and TRPA1 agonist can affect pigment producing activity of the melanocytes, expression of tyrosinase was analyzed in the hair follicles treated with 10 uM icilin by immunohistochemistry. Tyrosinase expression was decreased in treated hair follicles, compared to the control. In addition, the effects of icilin on melanogenic protein expression were tested in human epidermal melanocytes culture. A decrease in tyrosinase and tyrosinase-related protein (TRP)-1 expression levels were observed 48 hours after 10 uM icilin treatment, compared to the control, as determined by Western blot analysis. […]

In general, inhibition refers to the change of the read-out against control, counted positive when it falls.

Take `O=C1NC(c2cccc([N+](=O)[O-])c2)=CCN1c1ccccc1O` [icilin, 1-(2-Hydroxyphenyl)-4-(3-nitrophenyl)-1,2,3,6-tetrahydropyrimidin-2-one]: the “cell proliferation (Ki-67 immunoreactivity in hair matrix and outer root sheath)” value in experiment [1] is “inhibition of cell proliferation in a concentration-dependent manner”. For the same compound, in experiment [2], the “tyrosinase expression level compared to the control” value is “decrease” and the “tyrosinase-related protein (TRP)-1 expression level compared to the control” value is listed as “decrease”. For the same compound, in experiment [3], the inhibition at 10 µM was 45%. Besides, the “tyrosinase expression in treated hair follicles compared to the control” value in experiment [4] is reported as “decreased”.
As to `CC1CCC(C(C)C)C(O)C1` (stereo not shown) [menthol], the inhibition at 10 µM in experiment [3] came out at 40%.
For the compound `CC1CCC(C(C)C)C(OC(=O)C(C)O)C1` (stereo not shown) [menthyl lactate], in experiment [3], the inhibition at 10 µM amounted to 60%.
